The record followed here is PubChem BioAssay AID652153 (Molecular Libraries Program, Specialized Chemistry Center, …, 2013).

The IC50 is the midpoint of a concentration-inhibition curve.

SMILES strings stand for the structures. Activity calls are given as the source filed them. How the calls were made is not given here.

For this test, the target named is Rac GTPase-activating protein 1 (Homo sapiens) (UniProt Q9H0H5). Description: MgcRacGAP inhibitors, selectivity among RhoGAPs, dose response, selectivity assay, biochemical (AID 652153). Conditions: MgcRacGAP GAP activity on Rac1F28L, Biomol green phosphate.
Rac GTPase-activating protein 1 (Homo sapiens), sequence (Q9H0H5 whole entry, looked up): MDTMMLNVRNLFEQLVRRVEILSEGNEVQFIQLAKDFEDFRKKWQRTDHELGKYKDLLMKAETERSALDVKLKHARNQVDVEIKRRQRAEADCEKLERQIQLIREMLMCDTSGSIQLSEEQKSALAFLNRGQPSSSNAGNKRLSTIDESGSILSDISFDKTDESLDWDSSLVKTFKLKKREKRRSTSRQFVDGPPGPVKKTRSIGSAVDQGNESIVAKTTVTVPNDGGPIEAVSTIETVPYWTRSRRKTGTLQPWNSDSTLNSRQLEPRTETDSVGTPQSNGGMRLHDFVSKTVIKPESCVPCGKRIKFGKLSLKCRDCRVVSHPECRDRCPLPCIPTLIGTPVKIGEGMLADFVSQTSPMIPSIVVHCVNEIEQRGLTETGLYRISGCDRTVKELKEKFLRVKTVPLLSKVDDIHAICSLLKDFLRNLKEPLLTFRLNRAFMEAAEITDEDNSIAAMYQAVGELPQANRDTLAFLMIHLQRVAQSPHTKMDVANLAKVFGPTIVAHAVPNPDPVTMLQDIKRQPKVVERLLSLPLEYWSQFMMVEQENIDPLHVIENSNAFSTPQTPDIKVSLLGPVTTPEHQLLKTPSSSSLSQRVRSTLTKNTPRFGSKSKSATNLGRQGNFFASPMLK
As for `CCN(CC)c1ccc(C(=C2C=CC(=[N+](CC)CC)C=C2)c2ccc(N(CC)CC)cc2)cc1`, the IC50 result was “inactive”.

With `O=c1c2ccccc2sn1-c1ccc(Cl)cc1Cl`, the IC50 result was “inactive”.

Consider `COc1ccc(-n2sc3ccc(F)cc3c2=O)cc1`, for which the IC50 result was “inactive”.

On to `Cc1ccc(-n2sc3cc(F)ccc3c2=O)c(C)c1`, for which the IC50 result was “inactive”.

Consider `O=C(O)c1cc(N2N=C(C(F)(F)F)/C(=C/C=C/c3ccco3)C2=O)ccc1Cl`, for which the IC50 entry is “inactive”.

Take `Cc1cc(N)c2cc(NC(=O)/C=C/c3ccccc3Cl)ccc2n1`: the IC50 entry is “inactive”.

`COc1ccc(NC2CCCN(C(=O)C3(C)CCCCC3)C2)cc1` (stereo unspecified): the IC50 entry is “inactive”.

As to `CN(C)c1ccc(C=c2c3cc(O)ccc3n3c2cc(-c2ccccc2)[n+]3C)cc1`, the IC50 entry is “inactive”.

As to `O=C1C(Cl)=C(NC(=O)c2ccccc2)C(=O)C(Cl)=C1NC(=O)c1ccccc1`, the IC50 result was “inactive”.

Take `O=C(Nc1ccccc1Cl)/C(Cl)=C(\Cl)S(=O)c1ccccc1` (stereo unspecified): the IC50 entry was “inactive”.

With `O=C1C=CC(=O)N1c1ccccc1N1C(=O)C=CC1=O`, the IC50 result is “inactive”.

Take `O=c1c2ccccc2sn1-c1cccc(Cl)c1`: the IC50 is 0.69 µM.

Consider `O=c1c2ccccc2sn1-c1ccc(Cl)cc1`, for which the IC50 entry was “inactive”.

On to `Cc1cc(C)c2c(=N)c3ccccc3n(CCCCCCCCn3c4ccccc4c(=N)c4c(C)cc(C)nc43)c2n1`, for which the IC50 entry is “inactive”.

Take `COC(=O)c1cccc(-n2sc3ccccc3c2=O)c1`: the IC50 result is “inactive”.

Turning to `O=c1c2cc(F)ccc2sn1-c1ccccc1Cl`, the concentration for half-maximal inhibition (IC50) was 0.92 µM.

For the molecule `CN(C)c1ncc(C2=C(Cl)C(=O)C(N3CCCC3)=C(Cl)C2=O)s1`, the IC50 entry was “inactive”.

Consider `C[n+]1c(-c2ccc(C=NNC(=O)c3ccc(C(=O)NN=Cc4ccc(-c5cn6ccccc6[n+]5C)cc4)cc3)cc2)cn2ccccc21`, for which the IC50 result was “inactive”.

In the case of `O=c1c2ccc(F)cc2sn1-c1ccccc1`, the IC50 result is “inactive”.

Take `O=C1C(SCCO)=C(SCCO)C(=O)c2ccccc21`: the IC50 entry is “inactive”.

Regarding `O=C1C(=Cc2ccco2)CCC1=Cc1ccco1`, the IC50 result is “inactive”.

With `CN(C)c1nc(=NCc2cccs2)ss1`, the IC50 result was “inactive”.

In the case of `COc1ccc(/C=N/Nc2cc(C)nc3ccc(OC)cc23)c(OC)c1`, the IC50 entry is “inactive”.

As for `Nc1ccc(OCc2ccco2)cc1`, the IC50 entry is “inactive”.

In the case of `O=C(O)c1cccc(-n2sc3ccccc3c2=O)c1`, the IC50 result is “inactive”.

For the molecule `O=C1C=CC(=O)c2c(O)c(N3CCN(CCO)CC3)c(Cl)c(O)c21`, the IC50 entry is “inactive”.

As to `COc1ccc(Nc2ccc3ccccc3c2)cc1`, the IC50 entry was “inactive”.

Consider `Cc1ccc(C)c(-n2sc3ccc(F)cc3c2=O)c1`, for which the IC50 result was “inactive”.

For `O=C(O)c1cc(N2C(=O)C=CC2=O)cc(N2C(=O)C=CC2=O)c1`, the IC50 result was “inactive”.

Turning to `Cc1c(Cl)sn(-c2ccc(Cl)cc2)c1=O`, the IC50 entry was “inactive”.

Turning to `O=c1c2ccccc2sn1-c1ccccc1F`, the IC50 entry is “inactive”.

Consider `CCN1CCN(Cc2ccc(NC(=O)c3ccc(C)c(/C=C/c4cnc(Nc5cc(N6CCNCC6)nc(C)n5)cn4)c3)cc2C(F)(F)F)CC1`, for which the IC50 result was “inactive”.

As to `CSc1nc(N)c(N=Nc2ccc([As](=O)(O)O)cc2)c(=O)[nH]1`, the IC50 result is “inactive”.

On to `O=c1c2sc3ccccc3c2[nH]c(=S)n1CCN1CCOCC1`, for which the IC50 entry was “inactive”.

Take `COc1ccc(-n2sc3ccccc3c2=O)cc1`: the IC50 entry is “inactive”.

Regarding `CN(C)c1ccc(/C=C/c2cc[n+](C)c3ccccc23)cc1`, the IC50 result is “inactive”.

For the molecule `Cn1ccc(=Nc2ccc(NC(=O)c3ccc(N=c4ccn(C)c5ccc([N+](=O)[O-])cc45)cc3)cc2)cc1`, the half-maximal inhibitory concentration (IC50) was 0.939 µM.

In the case of `CC1OC(CC(=O)O)CC2=C1C(=O)c1c(O)cccc1C2=O` (stereo unspecified), the IC50 result is “inactive”.

Regarding `CC1=NNC(=O)C1Br` (stereo unspecified), the IC50 entry is “inactive”.

As for `CC(=O)Nc1ccc2sn(-c3ccccc3)c(=O)c2c1`, the IC50 is 0.643 µM.

For the molecule `O=C(O)C1CSC(c2ccco2)N1` (stereo unspecified), the IC50 entry was “inactive”.

`O=c1c2cc(F)ccc2sn1-c1ccccc1`: the IC50 entry was “inactive”.

In the case of `Nc1n[nH]c(=S)n1/N=C1/C(=O)Nc2ccccc21`, the IC50 result is “inactive”.

As to `O=C1NC(=S)N(c2ccccc2)C(=O)/C1=C/c1ccco1`, the IC50 result was “inactive”.

On to `O=c1c2ccccc2sn1-c1ccc(F)cc1`, for which the IC50 result was “inactive”.

Turning to `O=C1C=CC(=O)c2c(O)c(N3CCN(CCOCCO)CC3)c(Br)c(O)c21`, the IC50 result was “inactive”.
